Measurements published in patent publication US20110053897A1 (IRM LLC, priority 2009, published 2011).
Like-named read-outs stand apart in the source and are kept apart here.

Target: T1, Syk kinase (Homo sapiens, UniProt P43405)
T1 construct: purchased
Test: Syk kinase inhibition, Caliper LabChip off-chip mobility-shift kinase assay
Type: biochemical
Conditions: read-out: Syk Enzyme IC50
Method in brief: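 Purified Syk pre-incubated 15 min with compound in 100 mM HEPES pH 7.5, 1 mM DTT, 10 mM MgCl2 or MnCl2, 0.002% Brij-35, then 1.5 μM fluorescein peptide and ATP at apparent KM added; 1–1.5 h at room temperature, 4% DMSO, EDTA stop. Microfluidic mobility-shift product/substrate conversion gave % inhibition; IC50 from 12-point series (10–0.00003 μM) by 4-parameter fit.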

IC50 (Caliper LabChip assay)	IC50	SMILES
16 nM		O=c1c2c(N[C@H]3CC[C@@H](O)CC3)nc(Nc3cnccn3)cc2ccn1CC(F)(F)F [compound 1025]
291 nM		CC(C)(C)Nc1nc(Nc2cc(-c3ccccn3)ccn2)cc2ccn(CCO)c(=O)c12 [compound 841]
17 nM		COCCn1ccc2cc(Nc3cnccn3)nc(N[C@H]3CC[C@@H](O)CC3)c2c1=O [compound 1005]
	951 nM	O=c1[nH]ccc2cc(Nc3ccccn3)nc(N3CCOCC3)c12 [compound 286]
105 nM		CC(C)n1ccc2cc(Nc3c[n+]([O-])ccn3)nc(N[C@H]3CC[C@@H](O)CC3)c2c1=O [compound 1016]
	299 nM	COCCN1CCC(c2cc3cc[nH]c(=O)c3c(Nc3ccc(N4CCOCC4)cc3)n2)CC1 [compound 9]
9 nM		CC1(Cn2ccc3cc(Nc4cnccn4)nc(NC4CCC4)c3c2=O)COC1 [compound 755]
	302 nM	[2H]C([2H])([2H])n1ccc2cc(Nc3cc(Cl)ccn3)nc(NC3CC3)c2c1=O [compound 519]
	4 nM	COc1nc(-c2cc3cc[nH]c(=O)c3c(Nc3ccc(C4CCNCC4)c(C)c3)n2)cnc1N [compound 168]
42 nM		CC(C)(C)Nc1nc(Nc2cc(C(C)(C)O)ncn2)cc2ccn(CC(O)CO)c(=O)c12 (stereo not shown) [compound 730]
	551 nM	CCCNC(=O)c1ccc(Nc2nc(Nc3cc(C)ccn3)cc3ccn(C)c(=O)c23)cc1 [compound 363]
	224 nM	CCn1ccc2cc(Nc3cc(C)ccn3)nc(NC[C@@H]3CC[C@@H](O)C3)c2c1=O [compound 412]
	33 nM	CCc1ccnc(Nc2cc3cc[nH]c(=O)c3c(Nc3ccc(C4CCN(C5CC5)CC4)c(C)c3)n2)c1 [compound 253]
	70.8 nM	CCn1ccc2cc(Nc3cc(C)ccn3)nc(N[C@@H]3CC[C@H](O)C3)c2c1=O [compound 426]
	245 nM	C[C@@H]1CN(c2ccc(Nc3nc(-c4cncnc4)cc4cc[nH]c(=O)c34)cn2)C[C@H](C)O1 [compound 18]
	14 nM	COCCN1CCC(c2ccc(Nc3nc(-c4cnc(C)nc4)cc4cc[nH]c(=O)c34)cc2C)CC1 [compound 71]

IC50 (Caliper LabChip assay)	IC50	SMILES
51 nM		CC(C)(C)Nc1nc(Nc2cc(-c3ccncc3)ccn2)cc2ccn(CCO)c(=O)c12 [compound 842]
	385 nM	CCN1CCN(CCc2ccc(Nc3nc(Nc4ccc(C#N)cn4)cc4cc[nH]c(=O)c34)cc2)CC1 [compound 564]
10 nM		O=c1c2c(N[C@H]3CC[C@@H](O)CC3)nc(Nc3cnccn3)cc2ccn1C1CS(=O)(=O)C1 [compound 1010]
	60 nM	CCn1ccc2cc(Nc3cnccn3)nc(NC(C)C)c2c1=O [compound 307]
84 nM		CCn1ccc2cc(Nc3cc(C)ccn3)nc(N[C@@H]3CC[C@@H](O)C3)c2c1=O [compound 1040]
45 nM		CCn1ccc2cc(-c3cnc(N)nc3)nc(N[C@@H]3CCC(F)C3)c2c1=O (stereo partly shown) [compound 749]
8 nM		CC1(Nc2nc(Nc3cnccn3)cc3cc[nH]c(=O)c23)CC1 [compound 839]
	468 nM	[2H]C([2H])([2H])n1ccc2cc(Nc3cc(C)c(Cl)cn3)nc(NC3CC3)c2c1=O [compound 548]
	38 nM	COc1cncc(-c2cc3cc[nH]c(=O)c3c(Nc3ccc(C4=CCNCC4)c(C)c3)n2)n1 [compound 13]
	301 nM	N#Cc1ccc(Nc2cc3cc[nH]c(=O)c3c(Nc3ccc(N4CCOCC4)cc3)n2)nc1 [compound 515]
	300 nM	CCN1CCN(CCc2ccc(Nc3nc(-c4cnn(CC(C)C)c4)cc4c(F)c[nH]c(=O)c34)cc2)CC1 [compound 445]
22.2 nM		CC(C)(C)Nc1nc(Nc2cc(C(C)(C)O)ncn2)cc2ccn(C(CO)CO)c(=O)c12 [compound 741]
	611 nM	CC(C)Nc1nc(Nc2ccc(Cl)cn2)cc2cc[nH]c(=O)c12 [compound 560]
81 nM		CC1(Nc2nc(-c3cnc(N)nc3)cc3ccn(CC4CCOCC4)c(=O)c23)CCC1 [compound 930]
111 nM		CC[C@@H](CO)Nc1nc(Nc2cnccn2)cc2ccn(CC)c(=O)c12 [compound 1042]
